From EP4778519A1, “THERAPEUTIC OR PROPHYLACTIC AGENT FOR FRONTOTEMPORAL LOBAR DEGENERATION ACCOMPANIED BY ACCUMULATION OF TDP-43 (FTLD-TDP)” (Socium Inc., priority 2023, dated 2025)
Entries after “also recorded” stand apart in the source; their conditions may differ. Read-outs that look alike come from different tables or passages of the source.

Tests used:
[1] = test system: Neuro2a cells transfected with the TDP-43 gene; experiment: Inhibition of cell death in neuron-differentiated Neuro2a cells transfected with the TDP-43 gene (Example 1); assay type: cell-based, Mouse; settings: evaluated 7 days after transfection, Figures 3 and 4
Experimental: Mouse neuroblastoma (Neuro2a) cells were seeded on a dish. The Neuro2a cells were cultured in a culture medium containing DMEM+10% FBS at 37°C in the presence of 5% CO2. On the first day after seeding, differentiation into neurons was initiated. Differentiation into neurons was performed in a culture medium containing DMEM+2% FBS+20 µmol/L retinoic acid. On the fourth day after seeding, cells were transfected with synthesized TDP-43 mRNA by a lipofection method. Cells were sampled at 6 hours, 9 hours, 12 hours, 15 hours, 18 hours, and 21 hours after transfection. […] For sampling, cells were lysed in an RIPA buffer and centrifuged at 22,000xg for 30 minutes at 4°C, the supernatant was used as the soluble fraction, the precipitate was used as the insoluble fraction, and equal volumes of a 2×SDS sample buffer were added to the respective fractions and heated at 95°C for 5 minutes to prepare electrophoresis samples. The electrophoresis samples were subjected to electrophoresis using a polyacrylamide gel, TDP-43 was then transferred to a PVDF membrane. TDP-43 was detected through chemiluminescence using anti-TDP-43 antibodies as primary antibodies and HRP-conjugated anti-rabbit antibodies as secondary antibodies. […] The insoluble fractions of TDP-43 indicate the aggregation of TDP-43. […]
The proportion of dead cells was evaluated 7 days after the cells were transfected with the TDP-43 gene.

[2] = Reported human pharmacokinetics of D-cycloserine (literature); assay type: in vivo, humans; settings: estimated; 15 mg orally administered twice daily
[3] = cited from earlier work
[4] = cited from earlier work; remark: listed apart in the source
TDP-43 [5] = experiment: Soluble and insoluble fractions of TDP-43 in TDP-43-transfected Neuro2a cells, Western blot (Example 2); assay type: cell-based, Mouse; settings: 10 µmol/L added 6 hours after transfection, cultured for 12 hours; for soluble fractions versus insoluble fractions of TDP-43: Figure 5; for proportion of insoluble fractions based on a total number of soluble fractions and insoluble fractions of TDP-43: Figure 6
Experimental: Mouse neuroblastoma (Neuro2a) cells were seeded on a dish. The Neuro2a cells were cultured in a culture medium containing DMEM+10% FBS at 37°C in the presence of 5% CO2. On the first day after seeding, differentiation into neurons was initiated. Differentiation into neurons was performed in a culture medium containing DMEM+2% FBS+20 µmol/L retinoic acid. On the fourth day after seeding, cells were transfected with synthesized TDP-43 mRNA by a lipofection method. Cells were sampled at 6 hours, 9 hours, 12 hours, 15 hours, 18 hours, and 21 hours after transfection. […] For sampling, cells were lysed in an RIPA buffer and centrifuged at 22,000xg for 30 minutes at 4°C, the supernatant was used as the soluble fraction, the precipitate was used as the insoluble fraction, and equal volumes of a 2×SDS sample buffer were added to the respective fractions and heated at 95°C for 5 minutes to prepare electrophoresis samples. The electrophoresis samples were subjected to electrophoresis using a polyacrylamide gel, TDP-43 was then transferred to a PVDF membrane. TDP-43 was detected through chemiluminescence using anti-TDP-43 antibodies as primary antibodies and HRP-conjugated anti-rabbit antibodies as secondary antibodies. […] The insoluble fractions of TDP-43 indicate the aggregation of TDP-43.
Neuro2a cells were seeded on a dish. On the first day after seeding, differentiation into neurons was initiated. On the fourth day after seeding, cells were transfected with the TDP-43 gene.

TDP-43 [6] = experiment: Soluble and insoluble fractions of TDP-43 in motor neurons derived from iPS cells of healthy subjects, Western blot (Example 3); assay type: cell-based, human; settings: 10 µmol/L, cultured for 20 days, Figure 7
Experimental: 100 µL of an EHS-gel basement membrane matrix (commercially available from FUJIFILM Wako Pure Chemical Corporation) was added to 12.5 mL of DMEM (Dulbecco's Modified Eagle Medium, commercially available from FUJIFILM Wako Pure Chemical Corporation) and mixed, and the mixture was added to a 24-well plate at 600 µL per well. The plate was left at room temperature for 2 hours, and the solution was then removed from the wells. Next, 600 µL of DMEM was added to each well, and the plate was left at room temperature for 2 hours.
Motor neurons derived from iPS cells of healthy subjects and motor neurons derived from iPS cells of ALS patients were obtained from iXCells Biotechnologies. The motor neurons were quickly thawed in a thermostatic oven at 37°C and suspended in a motor neuron maintenance culture medium (iXCells Biotechnologies). […]
The soluble protein fractions and the insoluble protein fractions were subjected to SDS-PAGE, and the proteins were transferred to a PVDF membrane. […] Next, the PVDF membrane was washed three times with a buffer solution, 1 mL of a luminescence reagent (ImmunoStar LD, commercially available from FUJIFILM Wako Pure Chemical Corporation) was then used to induce luminescence from the labeled secondary antibodies, and the PVDF membrane was imaged.

TDP-43 [7] = experiment: Soluble and insoluble fractions of TDP-43 in motor neurons derived from iPS cells of ALS patients, Western blot (Example 3); assay type: cell-based, human; settings: 10 µmol/L, cultured for 20 days; for bands for insoluble fractions of TDP-43: Figure 7; for average proportion of insoluble fractions of TDP-43: three experiments, Figure 8

SMILES | effect of inhibiting cell death [1] | trough value [2] [nmol/L] | Cmax ([3]; 15 mg orally administered to humans, read-out: maximum blood concentration (Cmax)) [µM] | half-life ([3]; in vivo) | side effects ([4]; 150 mg administered to humans) | side effects ([4]; 250 mg administered to humans to treat tuberculosis) | soluble fractions versus insoluble fractions of TDP-43 (TDP-43 [5]) | proportion of insoluble fractions based on a total number of soluble fractions and insoluble fractions of TDP-43 (TDP-43 [5]) | bands for insoluble fractions of TDP-43 (TDP-43 [6]) | bands for insoluble fractions of TDP-43 (TDP-43 [7]) | average proportion of insoluble fractions of TDP-43 (TDP-43 [7])
N[C@@H]1CONC1=O [D-cycloserine, (4R)-4-Amino-1,2-oxazolidin-3-one] | cell death was inhibited; also recorded: exhibited an effect of inhibiting cell death in a concentration-dependent manner | > 128 | ~5.6 | about 10 hours | headaches | serious side effects such as epileptiform seizure and mental confusion | the number of soluble fractions of TDP-43 was larger than the number of insoluble fractions of TDP-43 | less than half | bands for insoluble fractions were unclear | bands for insoluble fractions were unclear | about 17.4%
CCCN(CCC)CCc1cccc2c1CC(=O)N2 [ropinirole] |  |  |  |  |  |  |  |  | bands for insoluble fractions were unclear | bands for insoluble fractions were unclear | about 19.3%
N[C@H]1CONC1=O [L-cycloserine, (4S)-4-amino-1,2-oxazolidin-3-one] | exhibited an effect of inhibiting cell death in a concentration-dependent manner |  |  |  |  |  | the number of soluble fractions of TDP-43 was larger than the number of insoluble fractions of TDP-43 | less than half |  |  | 
